Measured values as given in patent publication US20260021119A1, “TETRACYCLINE DERIVATIVES” (ICM (INSTITUT DU CERVEAU ET DE LA MOELLE ÉPINIÈRE), priority 2022, published 2026).
Values after ≈ are worked out from the molar mass of the structure shown. Where two headings read alike, the source gives them in different places.

How the values were obtained:
alpha-synuclein = alpha-synuclein (Homo sapiens, UniProt P37840); assay: alpha-synuclein aggregation, thioflavin T (ThT) fluorescence; type: biochemical; conditions: 20 μM
Description: The antiaggregant effect of the compound of formula (Ia) according to the present invention on alpha-synuclein (αS) was evaluated in vitro by measuring the fluorescence intensity of the probe thioflavin T (ThT), a molecule that specifically binds to cross-β structures characteristic of amyloid-like aggregation. The compound of formula (Ia) was dissolved in dimethylsulfoxide to reach a concentration of […]. In this assay, 70 μM of alpha-synuclein was incubated with and without 10 μM, 20 μM and 50 μM of the compound of formula (Ia), under orbital agitation (600 rpm), at 37° C., for 5 days. After the incubation time, Tht was added to each sample and changes in the emission fluorescence spectra (λex=450 and λem=[…]) was monitored using a Horiba Fluoromax CP4 spectrofluorometer.

E. coli ATCC 25922 = assay: MIC, broth dilution (Example 3); type: cell-based; conditions: Escherichia coli, ATCC25922; 18 h at 37° C., MH broth
Description: (§1) Bacterial strains used in this study were: S. aureus (ATCC25923), E. coli (ATCC25922), E. faecalis (ATCC29212) and P. aeruginosa (PA01). Strains were maintained at −80° C. in 15% (v/v) glycerol for cryoprotection. Bacteria were routinely grown in Mueller-Hinton (MH) broth at 37° C.
(§2) The susceptibility of bacterial strains to antibiotics and compounds was determined in microplates using the standard broth dilution method in accordance with the recommendations of the Comité de 1′Antibiogramme de la Société Française de Microbiologie (CA-SFM). (Members of the SFM Antibiogram Committee, R. Int. J. Antimicrob. Agents 2003, 21, 364). Briefly, the Minimal Inhibitory Concentrations (MICs) were determined with an inoculum of 10^5 CFU in 200 μL of MH broth containing two-fold serial dilutions of each drug. […] To determine all MICs, the measurements were independently repeated in triplicate.
(§3) The compound of formula (Ia) according to the invention was tested against clinical isolates Gram-bacteria (P. aeruginosa, E. coli) and Gram+ bacteria (S. aureus, E. faecalis). Minimum inhibitory concentrations (MIC) were tentatively determined and compared to known antibiotic tetracyclines (doxycycline, demeclocycline, chlortetracycline) and to the compound of formula (B) disclosed in Example 1 of the present application. The test was reproduced twice and the average MIC were calculated.

E. faecalis ATCC 29212 [1] = assay: MIC, broth dilution (Example 3); type: cell-based; conditions: Enterococcus faecalis, ATCC29212; 18 h at 37° C., MH broth
Description: as §1, §2, §3

P. aeruginosa PA01 [2] = assay: MIC, broth dilution (Example 3); type: cell-based; conditions: Pseudomonas aeruginosa, 18 h at 37° C., MH broth
Description: as §1, §2, §3

S. aureus ATCC 25923 [3] = assay: MIC, broth dilution (Example 3); type: cell-based; conditions: Staphylococcus aureus, ATCC25923; 18 h at 37° C., MH broth
Description: as §1, §2, §3

[4] = test system: Gram+ and Gram- bacteria (S. aureus, E. coli, E. faecalis, P. aeruginosa); assay: Antibiotic activity, summary over the bacterial strains (Examples 3 and 7); type: cell-based; parameters: key to Antibiotic activity: low: Weak antibiotic activity on only 1 of the 3 bacterial strains (i.e. S aureus); high: Strong antibiotic activity on all 3 bacterial strains; Significant antibiotic activity on two bacterial strains; conditions: summary over bacterial strains
Description: as §1, §2, §3
(§4) The properties of tetracycline derivatives, including the compound of formula (Ia) according to the present invention, were compared regarding the neuroprotection, anti-inflammatory effects, anti-aggregant activity, and antibiotic activity. The properties were evaluated as described herein above.
(§5) EC50s, IC50s determined graphically, *Rescue of dopamine neurons from spontaneous oxidative stress; ** TNF α release inhibition under LPS exposure, ^#Weak antibiotic activity on only 1 of the 3 bacterial strains (i.e. S aureus). ##Strong antibiotic activity on all 3 bacterial strains. ^###Significant antibiotic activity on two bacterial strains.

[5] = test system: dopaminergic neurons (TH+ neurons); assay: Neuroprotection: rescue of dopamine neurons from spontaneous oxidative stress in primary cultures; type: cell-based; conditions: for EC50: Neuron, read-out: Neuroprotection (EC 50 μM)
Description: In primary cultures of dopaminergic neurons, TH+ neurons suffer from oxidative stress, leading to the death of the neurons after a few days. When cultured in the presence of a positive reference (apotransferrin), the dopaminergic neurons survive. The neuroprotective effects of 10 μM of doxycycline (DOX) and of 3 μM or 5 μM of the compound of formula (Ia) according to the present invention were evaluated, compared to the effect of 100 μg/mL of apotransferrin (APO).
as §4, §5

[6] = test system: microglia cells (TNF α release under LPS); assay: Anti-inflammatory effect in microglia, TNF α release inhibition under LPS exposure; type: cell-based; conditions: TNF α release inhibition under LPS exposure, determined graphically; for IC50: Microglia, read-out: Anti inflammatory effects (IC 50 in μM)
Description: Microglia is in charge of the protection of the neurons. However, under stress conditions, microglia cells are responsible of inflammatory phenomena, leading eventually to the death of the neurons. The anti-inflammatory effects of 5 μM and 20 μM of compound of formula (B) presented in Example 1, of 5 μM and 20 μM of compound of formula (Ia) according to the present invention and of 50 μM of doxycycline (DOX) were evaluated, compared to the effect of 2.5 μM of dexamethasone (DEX). Microglia is in charge of the protection of the neurons. However, under stress conditions, microglia cells are responsible of inflammatory phenomena, leading eventually to the death of the neurons. The anti-inflammatory effects of 10 μM and 20 μM of compound of formula (C) (“10 μM (C)” and “20 μM (C)”) and of 10 μM and 20 μM of compound of formula (Ia) according to the present invention (“10 μM (Ia)” and “20 μM (Ia)”) were evaluated, compared to the effect of 2.5 μM of dexamethasone (“DEX”). The properties of tetracycline derivatives, including the compound of formula (Ia) according to the present invention, were compared regarding the neuroprotection, anti-inflammatory effects, anti-aggregant activity, and antibiotic activity. The properties were evaluated as described herein above. EC50s, IC50s determined graphically, *Rescue of dopamine neurons from spontaneous oxidative stress; ** TNF α release inhibition under LPS exposure, ^#Weak antibiotic activity on only 1 of the 3 bacterial strains (i.e. S aureus). ##Strong antibiotic activity on all 3 bacterial strains. ^###Significant antibiotic activity on two bacterial strains.

dopamine neurons = assay: Neuroprotection in midbrain mouse cultures, survival of TH+ dopamine neurons; type: cell-based; conditions: 10 μM, div14
Description: (§6) Midbrain mouse cultures were subjected to a maturation step until day in vitro (div) 7, and then gradually exposed to phenol red formulated DMEM/Nutrient mixture F12 Ham supplemented with 20 μg/mL of insulin and 2 μM of the NMDA receptor blocker MK-801. Under these conditions, which favor low-level, sustained oxidative insults, and lead ultimately to dopamine cell death, treatments with the compound of formula (Ib) according to the invention (at a concentration ranging from 0.1 to 5 μM) were performed or not, as well as treatments with the reference tetracycline antibiotic doxycycline (DOX; 10 μM) and the glycoprotein apotransferrin (APO; 100 μg/mL), the latter being used as reference neuroprotectant. At div14, cultures were fixed, and then processed for tyrosine hydroxylase (TH) immunocytochemistry to estimate the survival of dopamine neurons.
as §6, with “(Ic)” for “(Ib)”, “with” for “with the reference tetracycline antibiotic doxycycline (DOX; 10 μM) and”

[7] = Brain penetration after single subcutaneous injection; type: in vivo; conditions: mouse, brain and serum, sc; 40 mg/kg single subcutaneous injection, Swiss mice, 30 min to 24 h, n=3; read-out: brain-to-plasma ratio calculated from the area under the concentration time curves
Description: Adult Swiss mice received a single subcutaneous injection of 40 mg/kg of the compound of formula (Ia) according to the present invention, the compound of formula (C), or doxycycline diluted in saline with 5% DMSO and 5% Tween 80 (doxycycline was used as a reference tetracycline). The mice were sacrificed 30 min, 1 h, 8 h, and 24 h after treatment. After sacrifice, brain and serum samples were collected and processed at each time point for tetracycline dosage, using an UHPLC system coupled with a triple quadrupole mass spectrometer LCMS-8030 (Shimadzu Corporation, Kyoto, Japan).

E. coli ATCC 28922 = assay: MIC, standardized protocols (Example 9); type: cell-based; conditions: Escherichia coli, ATCC28922
Text: (§7) Bacterial strains used in this study were: S. aureus (ATCC25923), E. coli (ATCC28922), E. faecalis (ATCC29212) and P. aeruginosa (PA01). The minimum inhibitory concentrations (MICs) were estimated using standardized protocols (Mawabo et al, J. Infect. Public Health 2015).

E. faecalis ATCC 29212 [8] = assay: MIC, standardized protocols (Example 9); type: cell-based; conditions: Enterococcus faecalis, ATCC29212
Text: as §7

P. aeruginosa PA01 [9] = assay: MIC, standardized protocols (Example 9); type: cell-based; conditions: Pseudomonas aeruginosa
Text: as §7

S. aureus ATCC 25923 [10] = assay: MIC, standardized protocols (Example 9); type: cell-based; conditions: Staphylococcus aureus, ATCC25923
Text: as §7

4 test bacterial strains = assay: Antimicrobial effects, summary over the 4 test bacterial strains (Example 9); type: cell-based
Text: as §7

[11] = rescue of dopamine neurons from spontaneous oxidative stress, determined graphically

Compound | Anti aggregant activity at 20 μM (alpha-synuclein) | MIC (E. coli ATCC 25922) | MIC (E. faecalis ATCC 29212 [1]) | MIC (P. aeruginosa PA01 [2]) | MIC (S. aureus ATCC 25923 [3]) | Neuroprotection (EC 50 μM) [5, 11] | IC50 [6] | Anti inflammatory effects (IC 50 in μM) [6] | Antibiotic activity [4] | other results
CN(C)[C@@H]1C(O)=C(C(N)=O)C(=O)[C@@]2(O)C(O)=C3C(=O)c4c(O)ccc(Cl)c4[C@@](C)(O)[C@H]3C[C@@H]12 [Chlortetracycline] | yes | 6.25 µM (≈ 2.99 µg/mL) | 1.6 µM (≈ 0.766 µg/mL) | 32 µM (≈ 15.3 µg/mL) | 1.6 µM (≈ 0.766 µg/mL) | no | 1 µM | – | high | –
C[C@H]1c2cccc(O)c2C(=O)C2=C(O)[C@]3(O)C(=O)C(C(N)=O)=C(O)C[C@@H]3[C@@H](O)[C@@H]21 [Compound of formula (B)] | yes | 200 µM | – | > 2000 µM | 25 µM | no | – | no | low | –
CN(C)[C@@H]1C(O)=C(C(N)=O)C(=O)[C@@]2(O)C(O)=C3C(=O)c4c(O)ccc(Cl)c4[C@@H](O)C3CC12 (stereo partly drawn) [Compound of formula (D)] | yes | – | – | – | – | – | – | no | high^## | EC50 [5, 11]: 1.84 µM
CC1(O)c2c(Cl)ccc(O)c2C(=O)C2=C(O)C3C(=O)C(C(N)=O)=C(O)CC3CC21 (stereo not drawn) [Compound of formula (E)] | yes | – | – | – | – | – | – | no | low | EC50 [5]: 2.01 µM
CN(C)[C@@H]1C(O)=C(C(N)=O)C(=O)[C@@]2(O)C(O)=C3C(=O)c4c(O)cccc4[C@@](C)(O)[C@H]3[C@H](O)[C@@H]12 [Oxytetracycline] | – | – | – | – | – | – | – | – | – | MIC (E. coli ATCC 28922): 3.12 µM (≈ 1.44 µg/mL); MIC (E. faecalis ATCC 29212 [8]): 3.12 µM (≈ 1.44 µg/mL); MIC (P. aeruginosa PA01 [9]): 50 µM (≈ 23 µg/mL); MIC (S. aureus ATCC 25923 [10]): 3.12 µM (≈ 1.44 µg/mL); antimicrobial effects against the 4 test bacterial strains (4 test bacterial strains): exerts antimicrobial effects against 3 of the 4 test bacterial strains

Second part, led by results:

Anti aggregant activity at 20 μM (alpha-synuclein) | MIC (E. coli ATCC 25922) | MIC (E. faecalis ATCC 29212 [1]) | MIC (P. aeruginosa PA01 [2]) | MIC (S. aureus ATCC 25923 [3]) | Neuroprotection (EC 50 μM) [5, 11] | IC50 [6] | Anti inflammatory effects (IC 50 in μM) [6] | Compound | Antibiotic activity [4] | other results
yes | – | – | – | – | no | 8 µM | – | NC(=O)C1=C(O)C[C@@H]2C[C@@H]3Cc4cccc(O)c4C(=O)C3=C(O)[C@]2(O)C1=O [Compound of formula (F), incyclinide] | Significant^### | –
yes | – | – | – | – | no | 8 µM | – | CC1c2ccc(-c3ccccc3)c(O)c2C(=O)C2=C(O)C3(O)C(=O)C(C(N)=O)=C(O)CC3[C@@H](O)C21 (stereo partly drawn) [Compound of formula (G)] | low | –
– | 3.12 µM (≈ 1.45 µg/mL) | 0.4 µM (≈ 0.186 µg/mL) | 32 µM (≈ 14.9 µg/mL) | 0.4 µM (≈ 0.186 µg/mL) | – | – | – | CN(C)[C@@H]1C(O)=C(C(N)=O)C(=O)[C@@]2(O)C(O)=C3C(=O)c4c(O)ccc(Cl)c4[C@@H](O)[C@H]3C[C@@H]12 [Demeclocycline] | – | –
yes | 3.12 µM (≈ 1.39 µg/mL) | 0.4 µM (≈ 0.178 µg/mL) | 64 µM (≈ 28.4 µg/mL) | 0.4 µM (≈ 0.178 µg/mL) | – | 45 µM | – | C[C@H]1c2cccc(O)c2C(=O)C2=C(O)[C@]3(O)C(=O)C(C(N)=O)=C(O)[C@@H](N(C)C)[C@@H]3[C@@H](O)[C@@H]21 [Doxycycline] | high | neuroprotective effect ([5]; 10 μM, compared to apotransferrin 100 μg/mL): shows a neuroprotective effect; EC50 [5, 11]: 5.2 µM; neuroprotective effect (survival of dopamine neurons) (dopamine neurons): shows a neuroprotective effect; Kp [7]: 0.11 ± 0.03
